Assay results: US9474790B2, “Stable, protracted GLP-1/glucagon receptor co-agonists for medical use” (Novo Nordisk A/S, priority 2013, dated 2016)
pIC50: −log10 of the molar value. Numbered stars: 1 amine (or outer) side, 2 acyl side, 3 side chain; on linkers, the order of the positions; unused ones are H or OH. Square brackets hold non-standard residues; d marks the D form. Side chains are listed from the residue outwards. Peptide text beside a SMILES is read from it. * marks the point of attachment. C18 diacid = O=C(O)CCCCCCCCCCCCCCCCC(=O)*; γGlu = O=C(O)[C@H](CCC(=O)[*:2])N[*:1]; AEEA = NCCOCCOCC(=O)O; Aib = CC(C)(N)C(=O)O

Tests used:
human GLP-1 receptor = biological target: T1, human GLP-1 receptor (Homo sapiens, UniProt P43220); assay: GLP-1 receptor binding, 125I-GLP-1 displacement SPA on isolated membranes; details: displacement of 125I-GLP-1 from membranes; read-out: IC50 GLP-1R
T1 construct: expressed in transfected cells; host or cells: BHK cells (parent BHKTS13), clone FCW467-12A/KZ10-1, with CRE luciferase
T1 sequence (P43220 24-463): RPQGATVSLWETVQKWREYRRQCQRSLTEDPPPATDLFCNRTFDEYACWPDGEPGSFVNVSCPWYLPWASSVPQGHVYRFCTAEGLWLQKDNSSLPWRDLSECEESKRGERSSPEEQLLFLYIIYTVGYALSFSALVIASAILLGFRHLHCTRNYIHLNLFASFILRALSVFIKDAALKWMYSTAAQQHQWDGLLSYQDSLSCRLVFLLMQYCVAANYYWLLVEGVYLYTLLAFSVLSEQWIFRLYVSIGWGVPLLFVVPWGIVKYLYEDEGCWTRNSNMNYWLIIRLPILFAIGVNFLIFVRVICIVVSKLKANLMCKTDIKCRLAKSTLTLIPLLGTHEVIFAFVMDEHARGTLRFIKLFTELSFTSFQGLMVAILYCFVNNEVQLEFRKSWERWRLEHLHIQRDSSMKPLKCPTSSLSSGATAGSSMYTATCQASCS
Method: The purpose of this assay was to test the in vitro receptor binding activity of the glucagon derivatives of the invention. The receptor binding is a measure of affinity of a compound for the human GLP-1 receptor.
The receptor binding of each compound to the human GLP-1 receptor was measured in a displacement binding assay. In this type of assay a labelled ligand (in this case 125I-GLP-1) is bound to the receptor. Each derivative was added in a series of concentrations to isolated membranes containing the human GLP-1 receptor and displacement of the labelled ligand was monitored. The receptor binding was reported as the concentration at which half of the labelled ligand was displaced from the receptor, the IC50 value.
In order to test the binding of the derivatives to albumin, the assay may be performed in a very low concentration of serum albumin (max. 0.001% final assay concentration) as well as in the presence of a higher concentration of serum albumin (2.0% final assay concentration). An increase of the IC50 value, in the presence of serum albumin indicates an affinity to serum albumin and represents a method to predict a protracted pharmacokinetic profile of the test substance in animal models.
The following chemicals were used in the assay: DMEM w/o phenol red (Gibco 11880-028), Pen/strep (Invitrogen 15140-122), G418 (Invitrogen 10131-027), 1 M Hepes (Gibco 15630), EDTA (Invitrogen 15575-038), PBS (Invitrogen 14190-094), fetal calf serum (Invitrogen 16140-071), EGTA, MgCl2 (Merck 1.05832.1000), Tween 20 (Amresco 0850C335), SPA particles (wheat germ agglutinin (WGA) SPA beads, Perkin Elmer RPNQ0001), [125I]-GLP-1]-(7-36)NH2 (produced in-house), OptiPlate™-96 (Perkin Elmer).
Buffer 1 consisted of 20 mM Na-HEPES plus 10 mM EDTA and pH was adjusted to 7.4.
Buffer 2 consisted of 20 mM Na-HEPES plus 0.1 mM EDTA and pH was adjusted to 7.4.
Assay buffer consisted of 50 mM HEPES supplemented with 5 mM EGTA, 5 mM MgCl2, 0.005% Tween 20 and pH was adjusted to 7.4.
The cells used in this assay (clone FCW467-12A) were BHK cells with BHKTS13 as a parent cell line. The cells express the human GLP-1 receptor.
The cells were grown at 5% CO2 in DMEM, 10% fetal calf serum, 1% Pen/Strep (Penicillin/Streptomycin) and 1.0 mg/ml of the selection marker G418. To make a membrane preparation the cells were grown to approximately 80% confluence. The cells were washed twice in phosphate-buffered saline and harvested. The cells were pelleted using a brief centrifugation and the cell pellet was kept on ice. The cell pellet was homogenised with ULTRA-THURRAX dispersing instrument for 20-30 sec in a suitable amount of buffer 1 (e.g. 10 ml). The homogenate was centrifuged for 15 min. The pellet was re-suspended (homogenised) in 10 ml buffer 2 and centrifuged. This step was repeated once more. The resulting pellet was re-suspended in buffer 2 and the protein concentration was determined. The membranes were aliquoted and stored at minus 80° C.
1. For the receptor binding assay, 50 μl of the assay buffer was added to each well of an assay plate.
2. Test compounds were serially diluted to give the following concentrations: 8×10EE-7 M, 8×10EE-8 M, 8×10EE-9 M, 8×10EE-10 M, 8×10EE-11 M, 8×10EE-12 M and 8×10EE-13 M. Twenty-five μl were added to appropriate wells in the assay plate.
3. Cell membrane aliquots were thawed and diluted to their working concentration. Fifty μl were added to each well in the assay plate.
4. WGA SPA beads were suspended in assay buffer at 20 mg/ml. The suspension was diluted to 10 mg/ml in assay buffer just prior to addition to the assay plate. Fifty μl were added to each well in the assay plate.
5. The incubation was started by adding 25 μl of 480 pM solution of [125I]-GLP-1]-(7-36)NH2 to each well of the assay plate. A 25 μl aliquot was reserved for measuring total counts/well.
6. The assay plate was incubated for 2 h at 30° C.
7. The assay plate was centrifuged for 10 min.
8. The assay plate was read in a Perkin Elmer TopCount NXT instrument. […]

[1] = Thioflavin T (ThT) fibrillation assay for physical stability; assay type: physicochemical; details: 250 μM in 10 mM HEPES buffer, pH 7.5, 37° C., shaking 960 rpm
Excerpt: The purpose of this assay was to assess the physical stability of the glucagon derivatives of the invention in aqueous solutions.
Low physical stability of a peptide may lead to amyloid fibril formation, which is observed as well-ordered, thread-like macromolecular structures in the sample, which eventually may lead to gel formation. This has traditionally been measured by visual inspection of the sample. However, that kind of measurement is very subjective and depending on the observer. Therefore, the application of a small molecule indicator probe is much more advantageous. Thioflavin T (ThT) is such a probe and has a distinct fluorescence signature when binding to fibrils [Naiki et al; Anal. Biochem. 1989 177 244-249; LeVine; Methods. Enzymol. 1999 309 274-284].
The time course for fibril formation can be described by a sigmoidal curve with the following expression [Nielsen et al; Biochemistry 2001 40 6036-6046]:
Here, as depicted in FIG. 1, F is the ThT fluorescence at the time t. The constant t0 is the time needed to reach 50% of maximum fluorescence. The two important parameters describing fibril formation are the lag-time calculated by t0−2τ and the apparent rate constant kapp 1/τ.
Samples were prepared freshly before each assay. Each sample composition is described in the legends. The pH of the sample was adjusted to the desired value using appropriate amounts of concentrated NaOH and HCl. Thioflavin T was added to the samples from a stock solution in H2O to a final concentration of 1 μM.
Sample aliquots of 200 μl (250 μM of the glucagon derivative/analogue in 10 mM HEPES buffer, pH 7.5) were placed in a 96 well microtiter plate (Packard OptiPlate™-96, white polystyrene). Usually, four or eight replica of each sample (corresponding to one test condition) were placed in one column of wells. The plate was sealed with Scotch Pad (Qiagen).
Incubation at given temperature, shaking and measurement of the ThT fluorescence emission were done in a Fluoroskan Ascent FL fluorescence plate reader (Thermo Labsystems). The temperature was set to 37° C. and the plate was incubated with orbital shaking adjusted to 960 rpm with an amplitude of 1 mm. Fluorescence measurement was done using excitation through a 444 nm filter and measurement of emission through a 485 nm filter.
Each run was initiated by incubating the plate at the assay temperature for 10 min. The plate was measured every 20 minutes for a desired period of time. Between each measurement, the plate was shaken and heated as described.
After completion of the ThT assay the four or eight replica of each sample was pooled and centrifuged at 20000 rpm for 30 minutes at 18° C. The supernatant was filtered through a 0.22 μm filter and an aliquot was transferred to a HPLC vial.
The concentration of peptide in the initial sample and in the filtered supernatant was determined by reverse phase HPLC using an appropriate standard as reference. The percentage fraction the concentration of the filtered sample constituted of the initial sample concentration was reported as the recovery.
The measurement points were saved in Microsoft Excel format for further processing and curve drawing and fitting was performed using GraphPad Prism. The background emission from ThT in the absence of fibrils was negligible. The data points were typically a mean of four or eight samples.
The data set may be fitted to Eq. (1).

SMILES | pIC50 (human GLP-1 receptor) | THT assay Lag time (Ex. 76) [1] [h]
CC(C)C[C@H](NC(=O)[C@H](CC(C)C)NC(=O)[C@H](Cc1c[nH]c2ccccc12)NC(=O)[C@H](CCC(N)=O)NC(=O)[C@@H](NC(=O)[C@H](Cc1ccccc1)NC(=O)[C@H](CCC(=O)O)NC(=O)[C@H](CCCNC(=N)N)NC(=O)[C@H](C)NC(=O)[C@H](C)NC(=O)[C@H](CCCNC(=N)N)NC(=O)[C@H](CO)NC(=O)[C@H](CC(=O)O)NC(=O)[C@H](CC(C)C)NC(=O)[C@H](Cc1ccc(O)cc1)NC(=O)[C@H](CCCCN)NC(=O)[C@H](CO)NC(=O)[C@H](CC(C)C)NC(=O)[C@H](CC(=O)O)NC(=O)[C@H](CO)NC(=O)[C@@H](NC(=O)[C@H](Cc1ccccc1)NC(=O)[C@@H](NC(=O)CNC(=O)[C@H](CCC(N)=O)NC(=O)C(C)(C)NC(=O)[C@@H](N)Cc1c[nH]cn1)[C@@H](C)O)[C@@H](C)O)C(C)C)C(=O)N[C@@H](CC(N)=O)C(=O)N[C@@H](CCCCNC(=O)CC[C@H](NC(=O)CC[C@H](NC(=O)COCCOCCNC(=O)COCCOCCNC(=O)CC[C@H](NC(=O)CCCCCCCCCCCCCCCCC(=O)O)C(=O)O)C(=O)O)C(=O)O)C(N)=O [Example 9, N^ε29-[(4S)-4-carboxy-4-[[(4S)-4-carboxy-4-[[2-[2-[2-[[2-[2-[2-[[(4S)-4-carboxy-4-(17-carboxyheptadecanoylamino)butanoyl]amino]ethoxy]ethoxy]acetyl]amino]ethoxy]ethoxy]acetyl]amino]butanoyl]amino]butanoyl]-[Aib2,Leu10,Ala18,Arg20,Glu21,Leu27,Lys29]-Glucagon amide] (H-H[Aib]QGTFTSDLSKYLDSRAAREFVQWLLNK([γGlu-γGlu-AEEA-AEEA-γGlu-C18 diacid])-NH2; N-terminus assumed) | 9.70 | 8
CC(C)C[C@H](NC(=O)[C@H](Cc1ccc(O)cc1)NC(=O)[C@H](CCCCN)NC(=O)[C@H](CO)NC(=O)[C@H](CC(C)C)NC(=O)[C@H](CC(=O)O)NC(=O)[C@H](CO)NC(=O)[C@@H](NC(=O)[C@H](Cc1ccccc1)NC(=O)[C@@H](NC(=O)CNC(=O)[C@H](CCC(N)=O)NC(=O)C(C)(C)NC(=O)[C@@H](N)Cc1c[nH]cn1)[C@@H](C)O)[C@@H](C)O)C(=O)N[C@@H](CC(=O)O)C(=O)N[C@@H](C)C(=O)N[C@@H](CCCNC(=N)N)C(=O)N[C@@H](CCCNC(=N)N)C(=O)N[C@@H](C)C(=O)N[C@@H](CCCNC(=N)N)C(=O)N[C@@H](CC(=O)O)C(=O)N[C@@H](Cc1ccccc1)C(=O)N[C@H](C(=O)N[C@@H](CCC(N)=O)C(=O)N[C@@H](Cc1c[nH]c2ccccc12)C(=O)N[C@@H](CC(C)C)C(=O)N[C@@H](CC(C)C)C(=O)N[C@@H](CCCCNC(=O)COCCOCCNC(=O)COCCOCCNC(=O)CC[C@H](NC(=O)CC[C@H](NC(=O)CC[C@H](NC(=O)CCCCCCCCCCCCCCCCC(=O)O)C(=O)O)C(=O)O)C(=O)O)C(=O)N[C@H](C(N)=O)[C@@H](C)O)C(C)C [Example 58, N^ε28-[2-[2-[2-[[2-[2-[2-[[(4S)-4-carboxy-4-[[(4S)-4-carboxy-4-[[(4S)-4-carboxy-4-(17-carboxyheptadecanoylamino)butanoyl]amino]butanoyl]amino]butanoyl]amino]ethoxy]ethoxy]acetyl]amino]ethoxy]ethoxy]acetyl]-[Aib2,Leu10,Ala16,Arg20,Leu27,Lys28]-Glucagon amide] (H-H[Aib]QGTFTSDLSKYLDARRARDFVQWLLK([AEEA-AEEA-γGlu-γGlu-γGlu-C18 diacid])T-NH2; N-terminus assumed) | 9.70 | –
CC(C)C[C@H](NC(=O)[C@H](Cc1ccc(O)cc1)NC(=O)[C@H](CCCCN)NC(=O)[C@H](CO)NC(=O)[C@@H](NC(=O)[C@H](CC(=O)O)NC(=O)[C@H](CO)NC(=O)[C@@H](NC(=O)[C@H](Cc1ccccc1)NC(=O)[C@@H](NC(=O)CNC(=O)[C@H](CCC(N)=O)NC(=O)C(C)(C)NC(=O)[C@@H](N)Cc1c[nH]cn1)[C@@H](C)O)[C@@H](C)O)C(C)C)C(=O)N[C@@H](CC(=O)O)C(=O)N[C@@H](C)C(=O)N[C@@H](CCCNC(=N)N)C(=O)N[C@@H](CCCNC(=N)N)C(=O)N[C@@H](C)C(=O)N[C@@H](CCC(N)=O)C(=O)N[C@@H](CC(=O)O)C(=O)N[C@@H](Cc1ccccc1)C(=O)N[C@H](C(=O)N[C@@H](CCC(N)=O)C(=O)N[C@@H](Cc1c[nH]c2ccccc12)C(=O)N[C@@H](CC(C)C)C(=O)N[C@@H](CC(C)C)C(=O)N[C@@H](CCCCNC(=O)COCCOCCNC(=O)COCCOCCNC(=O)CC[C@H](NC(=O)CC[C@H](NC(=O)CC[C@H](NC(=O)CCCCCCCCCCCCCCCCC(=O)O)C(=O)O)C(=O)O)C(=O)O)C(=O)N[C@H](C(N)=O)[C@@H](C)O)C(C)C [Example 70, N^ε28-[2-[2-[2-[[2-[2-[2-[[(4S)-4-carboxy-4-[[(4S)-4-carboxy-4-[[(4S)-4-carboxy-4-(17-carboxyheptadecanoylamino)butanoyl]amino]butanoyl]amino]butanoyl]amino]ethoxy]ethoxy]acetyl]amino]ethoxy]ethoxy]acetyl]-[Aib2,Val10,Ala16,Leu27,Lys28]-Glucagon amide] (H-H[Aib]QGTFTSDVSKYLDARRAQDFVQWLLK([AEEA-AEEA-γGlu-γGlu-γGlu-C18 diacid])T-NH2) | 9.70 | –
